This is an account of results in ChEMBL document CHEMBL4190372, “Discovery of a Novel Oral Glucocorticoid Receptor Modulator (AZD9567) with Improved Side Effect Profile” (J Med Chem, 2018).

Values after ≈ are worked out from the molar mass of the structure shown.

The target of the first data set is T1, Glucocorticoid receptor (Homo sapiens, UniProt P04150).
T1 sequence (P04150 whole entry): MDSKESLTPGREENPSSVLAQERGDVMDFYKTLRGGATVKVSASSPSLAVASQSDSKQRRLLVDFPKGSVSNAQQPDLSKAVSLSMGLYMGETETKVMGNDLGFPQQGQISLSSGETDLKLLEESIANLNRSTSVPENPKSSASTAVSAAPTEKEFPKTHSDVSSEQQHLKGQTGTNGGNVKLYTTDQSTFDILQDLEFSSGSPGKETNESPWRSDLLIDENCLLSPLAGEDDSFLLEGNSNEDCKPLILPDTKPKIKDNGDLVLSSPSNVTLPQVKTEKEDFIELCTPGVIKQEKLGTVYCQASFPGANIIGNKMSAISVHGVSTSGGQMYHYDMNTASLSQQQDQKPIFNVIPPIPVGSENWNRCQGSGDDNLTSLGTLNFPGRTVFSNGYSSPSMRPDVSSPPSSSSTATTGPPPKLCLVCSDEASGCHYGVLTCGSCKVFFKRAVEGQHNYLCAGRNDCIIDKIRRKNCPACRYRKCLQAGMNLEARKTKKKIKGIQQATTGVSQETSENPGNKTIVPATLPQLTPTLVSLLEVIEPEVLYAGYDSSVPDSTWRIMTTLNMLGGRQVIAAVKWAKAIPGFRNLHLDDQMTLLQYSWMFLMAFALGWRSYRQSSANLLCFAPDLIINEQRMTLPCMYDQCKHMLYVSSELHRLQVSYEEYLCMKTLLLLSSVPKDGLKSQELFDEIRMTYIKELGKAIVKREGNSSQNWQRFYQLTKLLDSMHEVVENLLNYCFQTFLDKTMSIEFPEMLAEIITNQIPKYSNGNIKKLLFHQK
Settings: not given
For the compound `CC(C)[C@H](NC(=O)C(C)(F)F)[C@H](Oc1ccc2c(cnn2-c2cc(C#N)c(=O)n(C)c2)c1)c1ccccc1`, the IC50 (usually the concentration at which inhibition is half-maximal) came out at 0.027 µM.
With `COc1ccc([C@@H](Oc2ccc3c(cnn3-c3ccc(F)cc3)c2)[C@@H](NC(=O)C(C)(F)F)C(C)C)cn1`, the IC50 came to 0.00057 µM.
On the same count and under the same terms, under `COc1ccc([C@@H](Oc2ccc(C#N)cc2)[C@H](C)NC(=O)C(C)(F)F)cn1` stands 0.07 µM.
The same measure, in the same setting: under `CC(C)[C@H](NC(=O)C(C)(F)F)[C@H](Oc1ccc2c(cnn2-c2ccc(=O)n(C)c2)c1)c1cccc(Cl)c1` stands 0.0017 µM.
`CC(C)[C@H](NC(=O)C(C)(F)F)[C@H](Oc1ccc2c(cnn2-c2ccc(=O)n(C)c2)c1)c1cc(F)cc(F)c1`: the IC50 is 0.0022 µM.
Same read-out and setting: next, `CC(C)[C@H](NC(=O)C(C)(F)F)[C@H](Oc1ccc2c(cnn2-c2cnc(=O)n(C)c2)c1)c1ccccc1`: 0.051 µM.
Same read-out and setting: next, `CC(C)[C@H](NC(=O)C(F)(F)F)[C@H](Oc1ccc2c(cnn2-c2ccc(=O)n(C)c2)c1)c1cccc(Cl)c1`: 0.003 µM.
The same measure, in the same setting: under `COc1ccc([C@@H](Oc2ccc3c(cnn3-c3ccc(F)cc3)c2)[C@H](Cc2ccccc2)NC(=O)C(C)(F)F)cn1` stands 0.002 µM.

For a further data set, the target named is T2, Glucocorticoid receptor (Homo sapiens) (UniProt P04150).
T2 sequence (whole entry): T1 sequence (P04150 whole entry)
Settings: not given
`CC(C)[C@H](NC(=O)C(C)(F)F)[C@H](Oc1ccc2c(cnn2-c2ccc(=O)n(C)c2)c1)c1cc(F)cc(F)c1`: the fIC20 amounted to 0.12 nM.
On the same count and under the same terms, under `CC(C)[C@H](NC(=O)C(F)(F)F)[C@H](Oc1ccc2c(cnn2-c2ccc(=O)n(C)c2)c1)c1cccc(Cl)c1` stands 0.92 nM.

The next data set concerns the target T1, Glucocorticoid receptor.
Settings: not given
This is another data set of the same source.
Take `CC(C)[C@H](NC(=O)C(C)(F)F)[C@H](Oc1ccc2c(cnn2-c2cc(C#N)c(=O)n(C)c2)c1)c1ccccc1`: it took 0.11 µM to reach a half-maximal effect (EC50).
On the same count and under the same terms, under `COc1ccc([C@@H](Oc2ccc3c(cnn3-c3ccc(F)cc3)c2)[C@@H](NC(=O)C(C)(F)F)C(C)C)cn1` stands 0.0035 µM; under `CC(C)[C@H](NC(=O)C(C)(F)F)[C@H](Oc1ccc2c(cnn2-c2ccc(=O)n(C)c2)c1)c1cccc(Cl)c1`, 0.0029 µM; under `CC(C)[C@H](NC(=O)C(C)(F)F)[C@H](Oc1ccc2c(cnn2-c2ccc(=O)n(C)c2)c1)c1cc(F)cc(F)c1`, 0.0027 µM.
Take `CC(C)[C@H](NC(=O)C(C)(F)F)[C@H](Oc1ccc2c(cnn2-c2cnc(=O)n(C)c2)c1)c1ccccc1`: the EC50 (usually the concentration giving half of the maximal effect) amounted to 0.087 µM.
Same read-out and setting: next, `CC(C)[C@H](NC(=O)C(F)(F)F)[C@H](Oc1ccc2c(cnn2-c2ccc(=O)n(C)c2)c1)c1cccc(Cl)c1`: 0.0056 µM; `COc1ccc([C@@H](Oc2ccc3c(cnn3-c3ccc(F)cc3)c2)[C@H](Cc2ccccc2)NC(=O)C(C)(F)F)cn1`: 0.0087 µM.

The target of the next data set is T1, Glucocorticoid receptor. Briefly: Displacement of fluormone RED from human full length glucocorticoid receptor after 4 hrs by fluorescence polarization assay.
Settings: not given
(Polarisation of emitted light reports the rotation of a fluorescent probe.)
As to `CC(C)[C@H](NC(=O)C(C)(F)F)[C@H](Oc1ccc2c(cnn2-c2cc(C#N)c(=O)n(C)c2)c1)c1ccccc1`, the IC50 amounted to 0.0072 µM.
Same read-out and setting: next, `COc1ccc([C@@H](Oc2ccc3c(cnn3-c3ccc(F)cc3)c2)[C@@H](NC(=O)C(C)(F)F)C(C)C)cn1`: 0.018 µM.
For `COc1ccc([C@@H](Oc2ccc(C#N)cc2)[C@H](C)NC(=O)C(C)(F)F)cn1`, the IC50 is less than 0.0068 µM.
On the same count and under the same terms, next, `CC(C)[C@H](NC(=O)C(C)(F)F)[C@H](Oc1ccc2c(cnn2-c2ccc(=O)n(C)c2)c1)c1cccc(Cl)c1`: 0.0026 µM; `CC(C)[C@H](NC(=O)C(C)(F)F)[C@H](Oc1ccc2c(cnn2-c2ccc(=O)n(C)c2)c1)c1cc(F)cc(F)c1`: 0.0047 µM; `CC(C)[C@H](NC(=O)C(F)(F)F)[C@H](Oc1ccc2c(cnn2-c2ccc(=O)n(C)c2)c1)c1cccc(Cl)c1`: less than 0.003 µM.
Regarding `COc1ccc([C@@H](Oc2ccc3c(cnn3-c3ccc(F)cc3)c2)[C@H](Cc2ccccc2)NC(=O)C(C)(F)F)cn1`, the IC50 was determined as 0.032 µM.

Tested on in another data set: not listed separately
The experiment in a line: Aqueous solubility of the compound. The data set is classed as physicochemical. The following applies: aqueous; read-out: solubility.
On to `CC(C)[C@H](NC(=O)C(C)(F)F)[C@H](Oc1ccc2c(cnn2-c2cc(C#N)c(=O)n(C)c2)c1)c1ccccc1`, for which the solubility (as a rule, the dissolved amount per volume that the medium holds) worked out at 11 µM (≈ 5.72 µg/mL).
On the same count and under the same terms, next, `COc1ccc([C@@H](Oc2ccc3c(cnn3-c3ccc(F)cc3)c2)[C@@H](NC(=O)C(C)(F)F)C(C)C)cn1`: less than 0.01 µM; `COc1ccc([C@@H](Oc2ccc(C#N)cc2)[C@H](C)NC(=O)C(C)(F)F)cn1`: 290 µM (≈ 109 µg/mL); `CC(C)[C@H](NC(=O)C(C)(F)F)[C@H](Oc1ccc2c(cnn2-c2ccc(=O)n(C)c2)c1)c1cccc(Cl)c1`: 10 µM (≈ 5.29 µg/mL).
On the same count and under the same terms, next, `CC(C)[C@H](NC(=O)C(C)(F)F)[C@H](Oc1ccc2c(cnn2-c2ccc(=O)n(C)c2)c1)c1cc(F)cc(F)c1`: 21 µM (≈ 11.1 µg/mL); `CC(C)[C@H](NC(=O)C(C)(F)F)[C@H](Oc1ccc2c(cnn2-c2cnc(=O)n(C)c2)c1)c1ccccc1`: 5.1 µM (≈ 2.53 µg/mL); `CC(C)[C@H](NC(=O)C(F)(F)F)[C@H](Oc1ccc2c(cnn2-c2ccc(=O)n(C)c2)c1)c1cccc(Cl)c1`: 9.6 µM (≈ 5.12 µg/mL).
On the same count and under the same terms, under `COc1ccc([C@@H](Oc2ccc3c(cnn3-c3ccc(F)cc3)c2)[C@H](Cc2ccccc2)NC(=O)C(C)(F)F)cn1` stands less than 0.1 µM.

The next data set has as its target T2, Glucocorticoid receptor (Homo sapiens).
Settings: not given
This is another data set of the same source.
On to `CC(C)[C@H](NC(=O)C(C)(F)F)[C@H](Oc1ccc2c(cnn2-c2ccc(=O)n(C)c2)c1)c1cc(F)cc(F)c1`, for which the fIC30 came to 0.7 nM.
On the same count and under the same terms, next, `CC(C)[C@H](NC(=O)C(F)(F)F)[C@H](Oc1ccc2c(cnn2-c2ccc(=O)n(C)c2)c1)c1cccc(Cl)c1`: 1.6 nM.

For the next data set, the target named is T1, Glucocorticoid receptor. The experiment in a line: Antagonist activity at glucocorticoid receptor (unknown origin) expressed in human ChaGoK1 cells assessed as inhibition of dexamethasone induced transactivation incubated for 24 hrs by beta-galactosidase reporter gene assay.
Settings: not given
The data set is classed as cell-based.
In the case of `COc1ccc([C@@H](Oc2ccc3c(cnn3-c3ccc(F)cc3)c2)[C@@H](NC(=O)C(C)(F)F)C(C)C)cn1`, the IC50 is 0.07 µM.
Still for that read-out and setting: under `CC(C)[C@H](NC(=O)C(C)(F)F)[C@H](Oc1ccc2c(cnn2-c2ccc(=O)n(C)c2)c1)c1cccc(Cl)c1` stands 0.324 µM; under `CC(C)[C@H](NC(=O)C(C)(F)F)[C@H](Oc1ccc2c(cnn2-c2ccc(=O)n(C)c2)c1)c1cc(F)cc(F)c1`, 0.023 µM; under `CC(C)[C@H](NC(=O)C(F)(F)F)[C@H](Oc1ccc2c(cnn2-c2ccc(=O)n(C)c2)c1)c1cccc(Cl)c1`, 0.114 µM.
Still for that read-out and setting: next, `COc1ccc([C@@H](Oc2ccc3c(cnn3-c3ccc(F)cc3)c2)[C@H](Cc2ccccc2)NC(=O)C(C)(F)F)cn1`: 0.092 µM.

The next data set deals with T1, Glucocorticoid receptor.
Settings: not given
The source holds these as a separate data set.
As to `CC(C)[C@H](NC(=O)C(C)(F)F)[C@H](Oc1ccc2c(cnn2-c2ccc(=O)n(C)c2)c1)c1cc(F)cc(F)c1`, the IC50 stood at 0.12 µM.
Still for that read-out and setting: next, `CC(C)[C@H](NC(=O)C(F)(F)F)[C@H](Oc1ccc2c(cnn2-c2ccc(=O)n(C)c2)c1)c1cccc(Cl)c1`: 0.42 µM.

The next data set has as its target T1, Glucocorticoid receptor. Particulars: blood.
Description: Therapeutic index, ratio of fIC20 for transrepression of GR in cryopreserved human fetal osteoblasts assessed as inhibition of OPG mRNA expression to fIC30 for transrepression of GR in human whole blood assessed as inhibition of LPS-induced TNF-alpha release
Compound `CC(C)[C@H](NC(=O)C(C)(F)F)[C@H](Oc1ccc2c(cnn2-c2ccc(=O)n(C)c2)c1)c1cc(F)cc(F)c1` displayed a TI of 0.17.
Same read-out and setting: under `CC(C)[C@H](NC(=O)C(F)(F)F)[C@H](Oc1ccc2c(cnn2-c2ccc(=O)n(C)c2)c1)c1cccc(Cl)c1` stands 0.58.
